According to BindingDB's records for doi:10.1021/jm100571n (Novartis Institutes For Biomedical Research, 2010):

Key:
[1] = target: Tyrosine-protein kinase SYK (Homo sapiens) (UniProt P43405); assay: Inhibition of SYK
[2] = target: 3-phosphoinositide-dependent protein kinase 1 (Homo sapiens) (UniProt O15530); assay: Inhibition of PDK1

SMILES | IC50 [1] [µM] | IC50 [2] [µM]
CC(C)c1[nH]nc(C(F)(F)F)c1-c1ccnc(Nc2ccc(N3CCC(N(C)C)CC3)cn2)n1 [N*6'*-[4-(5-Isopropyl-3-trifluoromethyl-1H-pyrazol-4-yl)-pyrimidin-2-yl]-N*4*,N*4*-dimethyl-3,4,5,6-tetrahydro-2H-[1,3']-bipyridinyl-4,6'-diamine] | > 10 | > 10
CC(C)c1n[nH]c(Cl)c1-c1ccnc(Nc2ccc(N3CCC(N(C)C)CC3)cn2)n1 [4-(5-Chloro-3-isopropyl-1H-pyrazol-4-yl)-N-(5-(4-(dimethylamino)piperidin-1-yl)pyridin-2-yl)pyrimidin-2-amine] | > 10 | > 10
